# In BindingDB's records for doi:10.1016/j.chembiol.2015.08.013 (Aston University, 2015):
# Key:
# Test in all cases: TG Activity Assays
# [1] = target: T1, Protein-glutamine gamma-glutamyltransferase E (Homo sapiens, UniProt Q08188)
# T1 sequence (Q08188 whole entry): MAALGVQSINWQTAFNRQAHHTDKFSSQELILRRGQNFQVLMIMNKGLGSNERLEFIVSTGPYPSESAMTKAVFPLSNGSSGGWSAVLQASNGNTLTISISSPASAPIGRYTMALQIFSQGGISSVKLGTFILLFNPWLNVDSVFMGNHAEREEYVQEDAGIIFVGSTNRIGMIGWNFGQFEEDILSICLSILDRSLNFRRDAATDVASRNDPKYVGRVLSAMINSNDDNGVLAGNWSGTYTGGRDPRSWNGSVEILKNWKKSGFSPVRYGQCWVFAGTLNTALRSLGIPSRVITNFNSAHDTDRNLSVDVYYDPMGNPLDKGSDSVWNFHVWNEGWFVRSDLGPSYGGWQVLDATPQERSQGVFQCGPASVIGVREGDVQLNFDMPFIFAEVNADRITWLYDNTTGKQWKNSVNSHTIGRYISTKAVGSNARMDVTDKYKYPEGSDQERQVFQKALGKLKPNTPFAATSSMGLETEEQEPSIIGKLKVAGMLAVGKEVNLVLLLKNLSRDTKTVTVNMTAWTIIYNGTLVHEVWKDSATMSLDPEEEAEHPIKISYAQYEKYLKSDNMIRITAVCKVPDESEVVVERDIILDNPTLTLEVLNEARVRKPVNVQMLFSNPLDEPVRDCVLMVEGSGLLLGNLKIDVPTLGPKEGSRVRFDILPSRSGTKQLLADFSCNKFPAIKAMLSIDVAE
# Protocol: (§1) The incorporated biotinylated peptides were measured using horseradish peroxidase-conjugated streptavidin and then measured using o-phenylenediamine dihydrochloride substrates. The absorbance was measured at 490 nm using a microplat
# [2] = target: T2, Protein-glutamine gamma-glutamyltransferase K (Homo sapiens, UniProt P22735)
# T2 sequence (P22735 whole entry): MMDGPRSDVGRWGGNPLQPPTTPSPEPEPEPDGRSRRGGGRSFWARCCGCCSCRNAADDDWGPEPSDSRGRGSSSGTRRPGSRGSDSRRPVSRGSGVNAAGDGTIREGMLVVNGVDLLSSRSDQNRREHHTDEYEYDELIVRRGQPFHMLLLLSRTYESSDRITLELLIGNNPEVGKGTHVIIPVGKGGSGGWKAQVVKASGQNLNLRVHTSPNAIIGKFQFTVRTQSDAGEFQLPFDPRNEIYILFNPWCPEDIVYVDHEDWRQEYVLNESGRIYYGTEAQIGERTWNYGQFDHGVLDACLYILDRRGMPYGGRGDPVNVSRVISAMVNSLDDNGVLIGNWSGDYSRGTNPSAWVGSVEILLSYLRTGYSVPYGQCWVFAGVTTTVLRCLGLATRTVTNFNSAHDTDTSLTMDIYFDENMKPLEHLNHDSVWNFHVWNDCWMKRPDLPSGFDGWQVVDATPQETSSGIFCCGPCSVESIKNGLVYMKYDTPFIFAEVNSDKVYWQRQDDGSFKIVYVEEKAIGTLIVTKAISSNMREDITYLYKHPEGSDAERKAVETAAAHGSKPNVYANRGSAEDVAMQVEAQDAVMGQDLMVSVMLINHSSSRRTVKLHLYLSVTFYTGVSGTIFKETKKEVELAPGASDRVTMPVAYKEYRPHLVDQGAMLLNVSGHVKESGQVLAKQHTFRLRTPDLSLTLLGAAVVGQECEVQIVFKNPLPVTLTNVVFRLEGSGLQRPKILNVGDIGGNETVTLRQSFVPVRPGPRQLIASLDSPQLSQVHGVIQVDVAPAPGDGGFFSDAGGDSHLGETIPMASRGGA
# Protocol: as §1
# [3] = target: T3, Protein-glutamine gamma-glutamyltransferase 6 (Homo sapiens, UniProt O95932)
# T3 sequence (O95932 whole entry): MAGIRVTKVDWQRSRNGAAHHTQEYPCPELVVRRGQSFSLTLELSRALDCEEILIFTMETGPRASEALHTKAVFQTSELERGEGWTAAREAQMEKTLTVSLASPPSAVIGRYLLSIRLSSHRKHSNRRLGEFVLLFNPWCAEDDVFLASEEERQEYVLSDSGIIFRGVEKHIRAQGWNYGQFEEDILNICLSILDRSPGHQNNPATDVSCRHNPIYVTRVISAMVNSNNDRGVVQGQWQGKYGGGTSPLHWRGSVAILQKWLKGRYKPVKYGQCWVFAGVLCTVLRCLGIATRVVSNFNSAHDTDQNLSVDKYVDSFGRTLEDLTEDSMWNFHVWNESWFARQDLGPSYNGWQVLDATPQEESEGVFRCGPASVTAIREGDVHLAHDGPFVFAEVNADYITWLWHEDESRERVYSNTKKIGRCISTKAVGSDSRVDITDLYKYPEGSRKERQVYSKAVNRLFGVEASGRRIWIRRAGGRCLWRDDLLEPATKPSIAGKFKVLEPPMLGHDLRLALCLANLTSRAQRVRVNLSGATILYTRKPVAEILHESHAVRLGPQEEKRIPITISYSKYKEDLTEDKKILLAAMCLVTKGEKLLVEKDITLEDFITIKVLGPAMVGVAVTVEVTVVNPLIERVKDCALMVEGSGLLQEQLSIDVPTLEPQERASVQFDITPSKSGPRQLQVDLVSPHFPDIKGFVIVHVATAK
# Protocol: as §1
# [4] = target: T4, Protein-glutamine gamma-glutamyltransferase 2 (Homo sapiens, UniProt P21980)
# T4 sequence (P21980 whole entry): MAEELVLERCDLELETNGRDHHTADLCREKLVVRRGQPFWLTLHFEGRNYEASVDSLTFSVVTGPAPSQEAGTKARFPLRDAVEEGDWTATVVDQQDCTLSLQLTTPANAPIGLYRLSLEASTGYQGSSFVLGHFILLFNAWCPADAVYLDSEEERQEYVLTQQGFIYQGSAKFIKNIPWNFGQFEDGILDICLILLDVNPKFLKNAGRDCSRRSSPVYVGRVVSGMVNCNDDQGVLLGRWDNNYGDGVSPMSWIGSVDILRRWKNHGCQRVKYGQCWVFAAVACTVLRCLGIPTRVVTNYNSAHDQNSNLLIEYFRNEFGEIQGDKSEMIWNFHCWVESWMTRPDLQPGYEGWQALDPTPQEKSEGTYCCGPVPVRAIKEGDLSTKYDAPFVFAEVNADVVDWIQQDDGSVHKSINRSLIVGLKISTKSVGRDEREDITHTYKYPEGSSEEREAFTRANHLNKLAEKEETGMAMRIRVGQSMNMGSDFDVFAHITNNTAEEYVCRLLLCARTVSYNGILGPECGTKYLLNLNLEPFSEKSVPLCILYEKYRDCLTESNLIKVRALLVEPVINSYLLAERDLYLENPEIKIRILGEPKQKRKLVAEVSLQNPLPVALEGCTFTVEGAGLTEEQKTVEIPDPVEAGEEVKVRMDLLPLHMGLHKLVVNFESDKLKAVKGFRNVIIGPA
# Protocol: as §1
SMILES,IC50 [1] [µM],IC50 [2] [µM],IC50 [3] [µM],IC50 [4] [µM]
C=CC(=O)NCC(=O)N1CCN(C(=O)OCC23CC4CC(CC(C4)C2)C3)CC1 [1-Adamantylmethyl 4-[2-(prop-2-enoylamino)acetyl]piperazine-1-carboxylate (3f)],> 100,> 100,> 10,–
C=CC(=O)NCC(=O)N1CCN(C(=O)C23CC4CC(CC(C4)C2)C3)CC1 [N-[2-[4-(adamantane-1-carbonyl)piperazin-1-yl]-2-oxo-ethyl]prop-2-enamide (3e)],11,2.2,2,0.125
C[S+](C)CC(=O)NCC(=O)N1CCN(C(=O)OCC23CC4CC(CC(C4)C2)C3)CC1 [[2-[[2-[4-(1-Adamantylmethoxycarbonyl)piperazin-1-yl]-2-oxo-ethyl]amino]-2-oxoethyl]-dimethyl-sulfonium bromide (1f)],> 100,> 100,> 10,0.775
C[S+](C)CC(=O)NCC(=O)N1CCN(C(=O)C23CC4CC(CC(C4)C2)C3)CC1 [[2-[[2-[4-(Adamantane-1-carbonyl)piperazin-1-yl]-2-oxo-ethyl]amino]-2-oxo-ethyl]-dimethyl-sulfonium bromide (1e)],> 100,> 100,> 10,0.889
CN(C)c1cccc2c(S(=O)(=O)N3CCN(C(=O)CNC(=O)C[S+](C)C)CC3)cccc12 [[2-[[2-[4-[[5-(Dimethylamino)-1-naphthyl]sulfonyl]piperazin-1-yl]-2-oxo-ethyl]amino]-2-oxo-ethyl]-dimethyl-sulfonium bromide (1h)],> 100,> 100,> 10,–
